Read-outs that look alike come from different tables or passages of the source.

In test [1] the test system is Staph. aureus Russell. Kind of test: MIC of ampicillin alone or in presence of compound (synergistic activity, Demonstration 2), Staph. aureus Russell. To be noted: Staphylococcus aureus. Format: cell-based. On the procedure:
(§1) The MIC of ampicillin alone or in the presence of certain compounds of the invention was determined for certain Gram positive and Gram negative bacteria.

Test [2] relates to Kleb. aerogenes E70. The test is described as follows: MIC of ampicillin alone or in presence of compound (synergistic activity, Demonstration 2), Kleb. aerogenes E70. In kind it is cell-based. Particulars: Klebsiella aerogenes. On the procedure:
as §1

The test system of test [3] is E. coli JT39. Kind of test: MIC of ampicillin alone or in presence of compound (synergistic activity, Demonstration 2), E. coli JT39. Format: cell-based. Particulars: Escherichia coli. On the procedure: as §1
Test [4] has as its system Staph. Russell. Kind of test: MIC of ampicillin alone or in presence of compound (synergistic activity, Demonstration 1), Staph. Russell. Format: cell-based. Particulars: Staphylococcus aureus. On the procedure: (§2) The minimum inhibitory concentration (MIC) of ampicillin alone or in the presence of certain compounds of the invention was determined for several strains of bacteria.

For test [5], the system named is Proteus C889. The test is described as follows: MIC of ampicillin alone or in presence of compound (synergistic activity, Demonstration 1), Proteus C889. In kind it is cell-based. On the procedure: as §2
Test [6] deals with E.coli JT39. The test is described as follows: MIC of ampicillin alone or in presence of compound (synergistic activity, Demonstration 1), E.coli JT39. Particulars: Escherichia coli. In kind it is cell-based. On the procedure:
as §2

In test [7] the test system is Klebsiella E70. The test is described as follows: MIC of ampicillin alone or in presence of compound (synergistic activity, Demonstration 1), Klebsiella E70. In kind it is cell-based, Kleb. aerogenes. Particulars: E70, compound alone. As for the experimental part:
as §2

Test [8] relates to E.coli E96. The test is described as follows: In-vivo effect, CD50 in mice infected intraperitoneally with E.coli E96. To be noted: Escherichia coli, E96, sc, subcutaneous at 1 and 5 hours post infection, no synergist, read-out: CD50 of amoxycillin alone. On the procedure:
The CD50 in mice infected intraperitoneally with E.coli E96 was determined. Amoxycillin and the synergists were dosed subcutaneously at 1 and 5 hours post infection. The synergists were used at 2 mg/kg.

Where [9] appears, read: compound alone, read-out: MIC, compound alone.
The mark [10] stands for this setting: compound conc. 0 μg/ml, read-out: MIC Ampicillin (alone).
Where [11] appears, read: ampicillin alone, read-out: MIC of ampicillin alone.
[12] abbreviates: compound alone, E. coli JT39, read-out: MIC, compound alone.

For orientation: MIC means the lowest concentration found to suppress growth. Consider `CC(NC=O)SC/C=C1\O[C@@H]2CC(=O)N2[C@H]1C(=O)O` (some centres unmarked) [Example 13, Sodium 9-(1-formamidoethylthio)-9-deoxyclavulanate], for which the figures for the minimal inhibitory concentration (MIC) in test [1] (setting [9]), in test [2] (setting [9]) and in test [3] (setting [9]) were 16 µg/mL, 62.5 µg/mL and 125 µg/mL, respectively.
As to `CC1(C)S[C@@H]2[C@H](NC(=O)[C@H](N)c3ccccc3)C(=O)N2[C@H]1C(=O)O` [Ampicillin, ampicillin, reference compound], the minimal inhibitory concentration (MIC) in test [4] (setting [10]) was 500 µg/mL; in test [5] (setting [10]), over 2000 µg/mL; in test [6] (compound conc. 0 μg/ml, E.coli JT39, read-out: MIC Ampicillin (alone)), 2000 µg/mL; in test [1] (setting [11]), 125 to 500 µg/mL; in test [2] (setting [11]) it was 500 to 2000 µg/mL; in test [3] (setting [11]) it was at least 2000 µg/mL. For the same molecule, the “MIC Ampicillin (alone)” value in test [5] (compound conc. 0 μg/ml) is 1000 µg/mL.
Take `CC(=O)NCS(=O)(=O)C/C=C1\O[C@@H]2CC(=O)N2[C@H]1C(=O)O` [Example 22, Sodium 9-(acetamidomethylsuphonyl)-9-deoxyclavulanate]: the minimal inhibitory concentration (MIC) in test [1] (setting [9]) stood at 62.5 µg/mL; in test [2] (setting [9]) it was 62.5 µg/mL; in test [3] (setting [9]) it was 31.2 µg/mL.
For the molecule `CC(=O)NC[S+]([O-])C/C=C1\O[C@@H]2CC(=O)N2[C@H]1C(=O)O` (some centres unmarked) [Example 21, Sodium 9-(acetamidomethylsulphinyl)-9-deoxyclavulanate], the figures for the MIC in test [1] (setting [9]), in test [2] (setting [9]) and in test [3] (setting [9]) were 125 µg/mL, 125 µg/mL and 62.5 µg/mL, respectively.
Consider `O=C(NCSC/C=C1\O[C@@H]2CC(=O)N2[C@H]1C(=O)O)c1ccccc1` [Example 6, Sodium 9-deoxy-9-thio (N-benzoylaminomethyl) clavulanate], for which the minimal inhibitory concentration (MIC) in test [4] (setting [9]) came out at 16 µg/mL; in test [7], 500 µg/mL; in test [5] (setting [9]), 125 µg/mL; in test [6] (setting [12]), 250 µg/mL; in test [1] (setting [9]), 16 µg/mL; in test [2] (setting [9]), 500 µg/mL.
As for `CC(=O)NCSC/C=C1\O[C@@H]2CC(=O)N2[C@H]1C(=O)O` [Example 20, Sodium 9-(acetamidomethylthio)-9-deoxyclavulanate], the MIC was 4 µg/mL in test [1] (setting [9]), 62.5 µg/mL in test [2] (setting [9]) and 62.5 µg/mL in test [3] (setting [9]).
`O=C1CC(SC/C=C2\O[C@@H]3CC(=O)N3[C@H]2C(=O)O)N1` (some centres unmarked) [Example 2, Sodium 9-deoxy-9-thio-(azetidin-2'-on-4'-yl) clavulanate]: the MIC stood at 31.2 µg/mL in test [4] (setting [9]); 15 µg/mL in test [7]; 15 µg/mL in test [5] (setting [9]); 31.2 µg/mL in test [6] (setting [12]); 31.2 µg/mL in test [1] (setting [9]); 16 µg/mL in test [2] (setting [9]).
For the molecule `O=C(O)[C@H]1/C(=C/CS(=O)(=O)CN2CCCC2=O)O[C@@H]2CC(=O)N21` [Example 10, Sodium 9-(2-oxopyrrolidin-1-ylmethylsulphonyl)-9-deoxyclavulanate], the MIC in test [1] (setting [9]) was 31.2 µg/mL; in test [2] (setting [9]), 62.5 µg/mL; in test [3] (setting [9]), 62.5 µg/mL.
As to `O=C(O)[C@H]1/C(=C/CSCN2CCCC2=O)O[C@@H]2CC(=O)N21` [Example 8, Sodium 9-(2-oxopyrrolidin-1-ylmethylthio)-9-deoxyclavulate], the minimum inhibitory concentration (MIC) in test [1] (setting [9]) was 62.5 µg/mL; in test [2] (setting [9]), 250 µg/mL; in test [3] (setting [9]), 250 µg/mL.
With `CC1(C)S[C@@H]2[C@H](NC(=O)[C@H](N)c3ccc(O)cc3)C(=O)N2[C@H]1C(=O)O` [Amoxycillin, amoxycillin], the ED50 in test [8] is over 1000 mg/kg.
